PubChem BioAssay (NCI)
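All cell lines were grown in 96-well plates and treated with compound for 48 hours. Abbreviation: GI50, concentration required for 50% inhibition of growth. The concentration for full growth arrest is given as TGI.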

What was measured:
Experiment in all cases: DTP human tumour cell line panel, 48 h
NCI-H522 lung = test system: NCI-H522 lung
A549 NSCLC = test system: A549 NSCLC
786-0 renal = test system: 786-0 renal
SNB-19 CNS = test system: SNB-19 CNS
RXF 393 renal = test system: RXF 393 renal
SK-MEL-28 melanoma = test system: SK-MEL-28 melanoma
RPMI-8226 leukemia = test system: RPMI-8226 leukemia
SK-OV-3 ovarian = test system: SK-OV-3 ovarian
OVCAR-5 ovarian = test system: OVCAR-5 ovarian
DU-145 prostate = test system: DU-145 prostate

How did the TGI (NCI-H522 lung) turn out when `COc1ccc(-c2cc(-c3ccco3)c(C#N)c(=O)[nH]2)cc1` was run?
The TGI was 54 µM.

What about the TGI (A549 NSCLC) of the same compound?
The TGI was greater than 100 µM.

And the TGI (786-0 renal)?
Its TGI is greater than 100 µM.

What about the TGI (SNB-19 CNS) of the same compound?
Its TGI is greater than 100 µM.

And the TGI (RXF 393 renal)?
The TGI was greater than 100 µM.

And the TGI (SK-MEL-28 melanoma)?
Its TGI is greater than 100 µM.

What about the TGI (RPMI-8226 leukemia) of the same compound?
The TGI was greater than 100 µM.

And the TGI (SK-OV-3 ovarian)?
Its TGI is 72.2 µM.

What about the TGI (OVCAR-5 ovarian) of the same compound?
The TGI was greater than 100 µM.

With `Nc1ccc(C(=O)/C=C/c2ccccc2O)cc1` as the compound, how does the TGI (NCI-H522 lung) read?
Its TGI is greater than 100 µM.

What about the TGI (A549 NSCLC) of the same compound?
Its TGI is greater than 100 µM.

What about the TGI (786-0 renal) of the same compound?
The TGI was greater than 100 µM.

And the TGI (SNB-19 CNS)?
Its TGI is greater than 100 µM.

And the TGI (RXF 393 renal)?
The TGI was greater than 100 µM.

What about the TGI (SK-MEL-28 melanoma) of the same compound?
The TGI was greater than 100 µM.

And the TGI (SK-OV-3 ovarian)?
The TGI was greater than 100 µM.

And the TGI (OVCAR-5 ovarian)?
Its TGI is greater than 100 µM.

What does the source list for `NC(N)=N/N=C/c1c(-c2ccc(Cl)c([N+](=O)[O-])c2)nc2sc3ccccc3n12`?
GI50 (NCI-H522 lung): 3.66 µM; TGI (NCI-H522 lung): > 50 µM; GI50 (A549 NSCLC): 1.61 µM; TGI (A549 NSCLC): > 12.2 µM; GI50 (786-0 renal): 0.951 µM; TGI (786-0 renal): 1.75 µM; GI50 (RXF 393 renal): 10.9 µM; TGI (RXF 393 renal): 26.9 µM; GI50 (DU-145 prostate): 2.29 µM; TGI (DU-145 prostate): 14.8 µM; GI50 (OVCAR-5 ovarian): 0.773 µM; TGI (OVCAR-5 ovarian): 1.44 µM

Which results are given for `O=C(C(=O)c1cc(Br)ccc1O)c1cc(Br)ccc1O`?
GI50 (NCI-H522 lung): 2.94 µM; TGI (NCI-H522 lung): 9.3 µM; GI50 (A549 NSCLC): 4.16 µM; TGI (A549 NSCLC): 22.3 µM; GI50 (786-0 renal): 3.87 µM; TGI (786-0 renal): 13.7 µM; GI50 (SNB-19 CNS): 4.39 µM; TGI (SNB-19 CNS): > 100 µM; GI50 (SK-MEL-28 melanoma): 8 µM; TGI (SK-MEL-28 melanoma): > 100 µM; GI50 (RPMI-8226 leukemia): 2.71 µM; TGI (RPMI-8226 leukemia): 88.2 µM; GI50 (SK-OV-3 ovarian): 4.42 µM; TGI (SK-OV-3 ovarian): 30.2 µM; GI50 (DU-145 prostate): 3.66 µM; TGI (DU-145 prostate): 18.5 µM; GI50 (OVCAR-5 ovarian): 22.2 µM; TGI (OVCAR-5 ovarian): 74.8 µM

How did the TGI (NCI-H522 lung) turn out when `O=C(Nc1ccc(C(F)(F)F)cc1[N+](=O)[O-])c1cccnc1` was run?
Its TGI is 36.1 µM.

And the TGI (A549 NSCLC)?
The TGI was greater than 100 µM.

And the TGI (786-0 renal)?
The TGI was greater than 100 µM.

And the TGI (SNB-19 CNS)?
Its TGI is greater than 100 µM.

What about the TGI (SK-MEL-28 melanoma) of the same compound?
Its TGI is greater than 100 µM.

And the TGI (RPMI-8226 leukemia)?
Its TGI is greater than 100 µM.

What about the TGI (SK-OV-3 ovarian) of the same compound?
The TGI was greater than 100 µM.

What about the TGI (DU-145 prostate) of the same compound?
The TGI was greater than 100 µM.

What about the TGI (OVCAR-5 ovarian) of the same compound?
The TGI was greater than 100 µM.

What does the source list for `COc1cc(CCc2ccc(OC(C)=O)cc2)cc(OC)c1OC`?
TGI (NCI-H522 lung): > 100 µM; TGI (A549 NSCLC): > 100 µM; TGI (786-0 renal): > 100 µM; TGI (SNB-19 CNS): > 100 µM; TGI (RXF 393 renal): > 100 µM; TGI (SK-MEL-28 melanoma): > 100 µM; TGI (RPMI-8226 leukemia): > 100 µM; TGI (OVCAR-5 ovarian): > 100 µM

What does the source list for `Nc1ncnc2c1nc(Cl)n2C1OC(CO)C(O)C1O` (centres undefined)?
TGI (NCI-H522 lung): > 95.3 µM; TGI (A549 NSCLC): > 100 µM; TGI (786-0 renal): > 100 µM; TGI (SNB-19 CNS): > 100 µM; TGI (RXF 393 renal): 4.29 µM; TGI (SK-MEL-28 melanoma): > 100 µM; TGI (SK-OV-3 ovarian): > 100 µM; TGI (DU-145 prostate): > 93.3 µM; TGI (OVCAR-5 ovarian): 98.6 µM

`Nc1nc(=S)[nH]c(C(=O)Nc2nccs2)c1-c1ccccc1` was tested. Which TGI (NCI-H522 lung) did it give?
Its TGI is greater than 100 µM.

What about the TGI (A549 NSCLC) of the same compound?
Its TGI is greater than 100 µM.

What about the TGI (786-0 renal) of the same compound?
Its TGI is greater than 100 µM.

And the TGI (SNB-19 CNS)?
The TGI was greater than 100 µM.

What about the TGI (RXF 393 renal) of the same compound?
The TGI was greater than 100 µM.

And the TGI (SK-MEL-28 melanoma)?
The TGI was greater than 100 µM.

And the TGI (RPMI-8226 leukemia)?
Its TGI is greater than 100 µM.

What about the TGI (SK-OV-3 ovarian) of the same compound?
Its TGI is greater than 100 µM.

What about the TGI (OVCAR-5 ovarian) of the same compound?
Its TGI is greater than 100 µM.

For `CN(C)c1ccc(O[Si](Oc2ccc(N(C)C)cc2)(Oc2ccc(N(C)C)cc2)Oc2ccc(N(C)C)cc2)cc1`, which TGI (NCI-H522 lung) is on record?
Its TGI is greater than 100 µM.

And the TGI (A549 NSCLC)?
Its TGI is greater than 100 µM.

And the TGI (786-0 renal)?
The TGI was greater than 100 µM.

And the TGI (SNB-19 CNS)?
Its TGI is greater than 100 µM.

And the TGI (SK-MEL-28 melanoma)?
The TGI was greater than 100 µM.

And the TGI (RPMI-8226 leukemia)?
The TGI was greater than 100 µM.

What about the TGI (SK-OV-3 ovarian) of the same compound?
Its TGI is greater than 100 µM.

And the TGI (OVCAR-5 ovarian)?
The TGI was greater than 100 µM.

Which TGI (A549 NSCLC) does the source give for `CCCCCCCCCCCCCCC(C)CCC(=O)O` (centres undefined) here?
Its TGI is greater than 100 µM.

What about the TGI (786-0 renal) of the same compound?
The TGI was greater than 100 µM.

And the TGI (SNB-19 CNS)?
Its TGI is greater than 100 µM.

And the TGI (RXF 393 renal)?
Its TGI is greater than 100 µM.

What about the TGI (SK-MEL-28 melanoma) of the same compound?
The TGI was greater than 100 µM.

And the TGI (OVCAR-5 ovarian)?
The TGI was greater than 100 µM.

With `COc1ccc(C(=O)O/N=C2/CCCCC2CN(C)C)cc1` (centres undefined) as the compound, how does the TGI (NCI-H522 lung) read?
Its TGI is greater than 100 µM.

What about the TGI (A549 NSCLC) of the same compound?
Its TGI is greater than 100 µM.

What about the TGI (786-0 renal) of the same compound?
The TGI was greater than 100 µM.

And the TGI (RXF 393 renal)?
The TGI was greater than 100 µM.

And the TGI (SK-MEL-28 melanoma)?
Its TGI is greater than 100 µM.

And the TGI (RPMI-8226 leukemia)?
The TGI was greater than 100 µM.

And the TGI (SK-OV-3 ovarian)?
Its TGI is greater than 100 µM.

What about the TGI (OVCAR-5 ovarian) of the same compound?
The TGI was greater than 100 µM.
